Measured values: PubChem BioAssay AID2060348 (Molecular Pharmacology Branch, DTP, NCI, 2025)

System: 885724-159-R-J1-PDC spheroids viability
Experiment: Anticancer human tumor 885724-159-R-J1-PDC patient-derived pancreatic adenocarcinoma cell line growth inhibition [TAK]
Settings: spheroids with HUVEC and MSC; for IC50: curve of first compound; for viability, T/C: stronger effect = lower value; active = viability on the fitted dose curve at most 10% of control; inactive = the rest
From the text: Combinatorial screen of targeted agents with TAK-243 and ipatasertib in multi-cell type tumor spheroids
A high-throughput screen of multi-cell type tumor spheroids was designed to identify active combinations of targeted small molecules and TAK-243 or ipatasertib. Complex spheroids include a stromal component modeled by human endothelial cells (HUVEC) and fibroblasts modeled by human mesenchymal stem cells (MSCs). The concentration ranges selected for each drug and investigational agent were based upon clinically achievable concentrations if the clinical Cmax of the agent was known.
Compounds. The drugs and investigational agents: TAK-243 (785004), ipatasertib (767898), everolimus (733504), selumetinib (741078), bortezomib (756655), trametinib (758246), ixazomib (758254), vemurafenib (761431), dabrafenib (764134), sapanisertib (764658), alpelisib (765974), and copanlisib (816437), were obtained from the National Cancer Institute (NCI) Developmental Therapeutics Program Chemical Repository. The FDA-approved anticancer drug set is available from the NCI Developmental Therapeutics Program. […] The stock solutions were prepared in dimethyl sulfoxide (DMSO, Sigma-Aldrich, St. Louis, MO, cat. D2650) at 800-fold the tested concentration and stored at -70 degrees C prior to their use. All drugs and investigational agents were tested over a range starting from a high concentration at or near the clinical Cmax and decreasing in half-log increments. If the clinical Cmax for an agent had not been determined, the highest concentration tested was 10 microM.
NCI60 Cell Culture. NCI60 cell lines were obtained from the NCI Developmental Therapeutics Program Tumor Repository. For each lot of cells, the Repository performed Applied Biosystems AmpFLSTR Identifiler testing with PCR amplification to confirm consistency with the published Identifier STR profile for each cell line. Cells were kept in continuous culture for no more than 20 passages. The optimal seeding densities for each of the cell lines at each time point assessed were determined prior to performing the concentration response studies. Briefly, the NCI60 human tumor lines were grown as monolayers in RPMI 1640 medium supplemented with 10% FBS and 2 mmol/L L-glutamine.
An additional 2 lines were from the NCI60 cell line panel including melanomas, MALME-3M and SK-MEL-2. Pooled donor human umbilical vein endothelial cells (HUVEC, Lonza, cat. CC-2519) and human mesenchymal stem cells (hMSC, Lonza, cat. PT-2501) were purchased from Lonza (Walkersville, MD).
PDMR cell lines were grown in complete medium (DC medium): Dulbecco's modified Eagle's medium (DMEM)/F12 supplemented with 5% fetal bovine serum (FBS), 2 mM L-glutamine, 100 U/mL penicillin and 100 µg/ml streptomycin, 0.4 µg/ml hydrocortisone, 10 ng/ml epidermal growth factor (EGF) recombinant human protein, 24 µg/mL adenine, and 0.1 mg/mL primocin. During culture from frozen stock vials, PDMR cells were cultured in the same medium containing 10 µM Y-27632 (see Table 3). The PDCs were cultured in complete DMEM/F12 media without 10 microM Y-27632 dihydrochloride for at least two passages prior to the screen. The pooled donor HUVEC and hMSC were cultured in endothelial cell growth medium 2 (PromoCell, Heidelberg, Germany, cat. C-22011) and mesenchymal stem cell growth medium 2 (PromoCell, cat. C-28009), respectively. For all experiments, HUVEC and hMSC were used at passages </=5.
For the pre-screen, cell seeding densities were determined from a titration spanning the range from 5,000 to 313 cells per well. The mct-spheroids including 60% malignant cells, 25% HUVEC and 15% MSC dispensed as a mixture into U-bottom Ultra-Low Attachment 384-well plates (Corning, NY)
High-throughput Drug Combination Screening.
Prior to their inoculation into 384-well plates, malignant cells, HUVEC, and hMSC were removed from T flasks using TrypLE express (Thermo Fisher Scientific, cat. 12605036) and harvested by centrifugation for 5 min at 233 x g. […]
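Note: spheroids exposed to drugs for seven days.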

CC(C)CC(NC(=O)C(Cc1ccccc1)NC(=O)c1cnccn1)B(O)O (stereo not given) + CC(C)NCC(C(=O)N1CCN(c2ncnc3c2C(C)CC3O)CC1)c1ccc(Cl)cc1
inactive: viability, T/C (second compound 0.3 µM, first compound 31.6 pM) 77.5% | viability, T/C (second compound 0.3 µM, first compound 0.0001 µM) 68.6% | viability, T/C (second compound 0.3 µM, first compound 0.000316 µM) 68.7% | viability, T/C (second compound 0.3 µM, first compound 0.001 µM) 68.1% | viability, T/C (second compound 0.3 µM, first compound 0.00316 µM) 55% | viability, T/C (second compound 0.949 µM, first compound 31.6 pM) 60.3% | viability, T/C (second compound 0.949 µM, first compound 0.0001 µM) 64.1% | viability, T/C (second compound 0.949 µM, first compound 0.000316 µM) 59% | viability, T/C (second compound 0.949 µM, first compound 0.001 µM) 65.8% | viability, T/C (second compound 0.949 µM, first compound 0.00316 µM) 23.7% | viability, T/C (second compound 3 µM, first compound 31.6 pM) 58.1% | viability, T/C (second compound 3 µM, first compound 0.0001 µM) 58.9% | viability, T/C (second compound 3 µM, first compound 0.000316 µM) 58.7% | viability, T/C (second compound 3 µM, first compound 0.001 µM) 57.9% | viability, T/C (second compound 3 µM, first compound 0.00316 µM) 20.6% | viability, T/C (second compound 9.49 µM, first compound 31.6 pM) 48.1% | viability, T/C (second compound 9.49 µM, first compound 0.0001 µM) 54.8% | viability, T/C (second compound 9.49 µM, first compound 0.000316 µM) 50.5% | viability, T/C (second compound 9.49 µM, first compound 0.001 µM) 49% | viability, T/C (second compound 9.49 µM, first compound 0.00316 µM) 21.1% | viability, T/C (second compound 30 µM, first compound 31.6 pM) 31% | viability, T/C (second compound 30 µM, first compound 0.0001 µM) 38.5% | viability, T/C (second compound 30 µM, first compound 0.000316 µM) 33.7% | viability, T/C (second compound 30 µM, first compound 0.001 µM) 34.5% | viability, T/C (second compound 30 µM, first compound 0.00316 µM) 14.8%
0.572 nM: IC50 (second compound 9.49 µM)
< 0.0316 nM: IC50 (second compound 30 µM)
1.44 nM: IC50 (second compound 0.949 µM)
3.48 nM: IC50 (second compound 0.3 µM)
active: viability, T/C (second compound 0.3 µM, first compound 0.01 µM) 0.97% | viability, T/C (second compound 0.949 µM, first compound 0.01 µM) 1.29% | viability, T/C (second compound 3 µM, first compound 0.01 µM) 0.95% | viability, T/C (second compound 9.49 µM, first compound 0.01 µM) 0.94% | viability, T/C (second compound 30 µM, first compound 0.01 µM) 0.56%
1.28 nM: IC50 (second compound 3 µM)

Cn1cnc2c(F)c(Nc3ccc(Br)cc3Cl)c(C(=O)NOCCO)cc21 + CC(C)NCC(C(=O)N1CCN(c2ncnc3c2C(C)CC3O)CC1)c1ccc(Cl)cc1
inactive: viability, T/C (second compound 0.3 µM, first compound 0.00949 µM) 49.1% | viability, T/C (second compound 0.3 µM, first compound 0.03 µM) 42.5% | viability, T/C (second compound 0.3 µM, first compound 0.0949 µM) 29.3% | viability, T/C (second compound 0.3 µM, first compound 0.3 µM) 24.9% | viability, T/C (second compound 0.3 µM, first compound 0.949 µM) 18.8% | viability, T/C (second compound 0.3 µM, first compound 3 µM) 14.1% | viability, T/C (second compound 0.949 µM, first compound 0.00949 µM) 45.2% | viability, T/C (second compound 0.949 µM, first compound 0.03 µM) 41.2% | viability, T/C (second compound 0.949 µM, first compound 0.0949 µM) 30.5% | viability, T/C (second compound 0.949 µM, first compound 0.3 µM) 22.6% | viability, T/C (second compound 0.949 µM, first compound 0.949 µM) 16.6% | viability, T/C (second compound 0.949 µM, first compound 3 µM) 10.3% | viability, T/C (second compound 3 µM, first compound 0.00949 µM) 42% | viability, T/C (second compound 3 µM, first compound 0.03 µM) 37.1% | viability, T/C (second compound 3 µM, first compound 0.0949 µM) 27.5% | viability, T/C (second compound 3 µM, first compound 0.3 µM) 18.7% | viability, T/C (second compound 3 µM, first compound 0.949 µM) 12.6% | viability, T/C (second compound 9.49 µM, first compound 0.00949 µM) 36.7% | viability, T/C (second compound 9.49 µM, first compound 0.03 µM) 27.9% | viability, T/C (second compound 9.49 µM, first compound 0.0949 µM) 16.8% | viability, T/C (second compound 9.49 µM, first compound 0.3 µM) 13.7% | viability, T/C (second compound 30 µM, first compound 0.00949 µM) 20.5% | viability, T/C (second compound 30 µM, first compound 0.03 µM) 13.7%
< 9.49 nM: IC50 (second compound 0.3 µM) | IC50 (second compound 0.949 µM) | IC50 (second compound 3 µM) | IC50 (second compound 9.49 µM) | IC50 (second compound 30 µM)
active: viability, T/C (second compound 3 µM, first compound 3 µM) 7.23% | viability, T/C (second compound 9.49 µM, first compound 0.949 µM) 9.53% | viability, T/C (second compound 9.49 µM, first compound 3 µM) 4.7% | viability, T/C (second compound 30 µM, first compound 0.0949 µM) 9.15% | viability, T/C (second compound 30 µM, first compound 0.3 µM) 5.41% | viability, T/C (second compound 30 µM, first compound 0.949 µM) 3.69% | viability, T/C (second compound 30 µM, first compound 3 µM) 2.03%
